The results in this text go back to patent US20140275063A1, “NEW ENZYME INHIBITOR COMPOUNDS” (PROXIMAGEN LIMITED, priority 2011, published 2014).

Molecules are shown by their SMILES. Where a name gives a salt, the structure may show the parent alone.

The target in the assay is T1, human SSAO (Homo sapiens, UniProt Q16853).
T1 construct: made in house
T1 sequence (Q16853 29-763 limits assumed): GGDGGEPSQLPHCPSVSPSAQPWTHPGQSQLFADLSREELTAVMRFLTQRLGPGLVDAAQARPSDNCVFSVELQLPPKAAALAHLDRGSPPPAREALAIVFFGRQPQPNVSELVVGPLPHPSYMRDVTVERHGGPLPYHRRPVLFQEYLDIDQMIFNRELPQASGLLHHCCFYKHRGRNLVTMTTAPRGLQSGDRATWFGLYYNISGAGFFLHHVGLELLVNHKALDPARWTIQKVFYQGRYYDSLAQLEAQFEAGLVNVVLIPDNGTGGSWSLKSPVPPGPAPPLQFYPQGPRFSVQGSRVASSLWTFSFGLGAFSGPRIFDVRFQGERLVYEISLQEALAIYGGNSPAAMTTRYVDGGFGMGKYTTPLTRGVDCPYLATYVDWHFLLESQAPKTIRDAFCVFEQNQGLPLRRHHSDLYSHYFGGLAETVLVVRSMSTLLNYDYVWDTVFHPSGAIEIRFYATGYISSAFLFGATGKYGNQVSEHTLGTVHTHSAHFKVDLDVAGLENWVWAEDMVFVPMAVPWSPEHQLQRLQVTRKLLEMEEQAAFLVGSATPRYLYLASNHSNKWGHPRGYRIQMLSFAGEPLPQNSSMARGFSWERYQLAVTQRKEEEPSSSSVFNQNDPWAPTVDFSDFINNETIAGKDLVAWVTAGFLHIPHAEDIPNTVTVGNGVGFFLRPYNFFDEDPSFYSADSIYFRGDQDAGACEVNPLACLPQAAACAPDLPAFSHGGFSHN
In words: SSAO inhibitory activity (HRP-coupled hydrogen peroxide detection or 14C-benzaldehyde detection, benzylamine substrate). It is filed as biochemical. To be noted: purified recombinantly expressed human SSAO, benzylamine as substrate, RT. On the procedure: All primary assays were performed at RT. with purified recombinantly expressed human SSAO. Enzyme was prepared essentially as described in Öhman et al. (Protein Expression and Purification 46 (2006) 321-331). In addition, secondary- and selectivity assays were performed using SSAO prepared from various tissues or purified rat recombinant SSAO. The enzyme activity was assayed with benzylamine as substrate by measuring either benzaldehyde production, using ^14C-labeled substrate, or by utilizing the production of hydrogen peroxide in a horseradish peroxidase (HRP) coupled reaction. Briefly, test compounds were dissolved in dimethyl sulfoxide (DMSO) to a concentration of 10 mM. Dose-response measurements were assayed by either creating 1:10 serial dilutions in DMSO to produce a 7 point curve or by making 1:3 serial dilutions in DMSO to produce 11 point curves. The top concentrations were adjusted depending on the potency of the compounds and subsequent dilution in reaction buffer yielded a final DMSO concentration ≦2%.
In a horseradish peroxidase (HRP) coupled reaction, hydrogen peroxide oxidation of 10-acetyl-3,7-dihydroxyphenoxazine produced resorufin, which is a highly fluorescent compound (Zhout and Panchuk-Voloshina. Analytical Biochemistry 253 (1997) 169-174; Amplex® Red Hydrogen Peroxideperoxidase Assay kit, Invitrogen A22188). Enzyme and compounds in 50 mM sodium phosphate, pH 7.4 were set to pre-incubate in flat-bottomed microtiter plates for approximately 15 minutes before initiating the reaction by addition of a mixture of HRP, benzylamine and Amplex reagent. Benzylamine concentration was fixed at a concentration corresponding to the Michaelis constant, determined using standard procedures. Fluorescence intensity was then measured at several time points during 1-2 hours, exciting at 544 nm and reading the emission at 590 nm. For the human SSAO assay final concentrations of the reagents in the assay wells were: SSAO enzyme 1 μg/ml, benzylamine 100 μM, Amplex reagent 20 μM, HRP 0.1 U/mL and varying concentrations of test compound. The inhibition was measured as % decrease of the signal compared to a control without inhibitor (only diluted DMSO). The background signal from a sample containing no SSAO enzyme was subtracted from all data points. Data was fitted to a four parameter logistic model and IC50 values were calculated using the Graph Pad Prism 4 or XLfit 4 programs.
SSAO activity was assayed using 14C-labeled benzylamine and analysed by measuring radioactive benzaldehyde. In a white 96-well optiplate (Packard), 20 μL of diluted test compound was pre-incubated at RT. with 20 μL SSAO enzyme for approximately 15 minutes with continuous agitation. All dilutions were made with PBS. The reaction was initiated by adding 20 μL of the benzylamine substrate solution containing [7-14C] Benzylamine hydrochloride (CFA589, GE Healthcare). The plate was incubated for 1 hour as above after which the reaction was stopped by acidification (10 μL 1 M HCl). Then 90 μL Micro Scint-E solution (Perkin-Elmer) was added to each well and the plate was continuously mixed for 15 minutes. Phase separation occurred instantly and activity was read in a Topcount scintillation counter (Perkin-Elmer). In the final reaction well, the human recombinant SSAO concentration was 10 μg/ml. In order to optimize sensitivity, the substrate concentration was decreased as compared to the HRP coupled assay in order to get a higher fraction of radioactive product. In the human SSAO assay, benzylamine concentration was 40 μM (0.2 μCi/mL). Data was analysed as above.
As a reminder, the IC50 is the concentration at which inhibition is half-maximal. Consider `CCNC(=O)N1CCN(CC2CN(c3nn(-c4ccc(Cl)cc4)c4cnccc34)CCO2)CC1` (stereo not shown) [Compound 39, 4-({4-[1-(4-Chlorophenyl)-1H-pyrazolo[3,4-c]pyridin-3-yl]morpholin-2-yl}methyl)-N-ethylpiperazine-1-carboxamide], for which the IC50 was in the range of 100 to 500 nM.

As for `CN1CCC(CNC(=O)N2CCC(c3cn(-c4ccc(Cl)cc4)c4cnccc34)CC2)CC1` [Compound 11, 4-[1-(4-Chlorophenyl)-1H-pyrrolo[2,3-c]pyridin-3-yl]-N-[(1-methylpiperidin-4-yl)methyl] piperidine-1-carboxamide], the IC50 was under 100 nM.

Take `NCCNC(=O)CC1COCCN1c1nn(-c2ccc(Cl)cc2)c2cnccc12` (stereo not shown) [Compound 54, N-(2-Aminoethyl)-2-{4-[1-(4-chlorophenyl)-1H-pyrazolo[3,4-c]pyridin-3-yl]morpholin-3-yl}acetamide dihydrochloride]: the IC50 is under 100 nM. Consider `CN1CCC(NC(=O)N2CCC(c3cn(-c4ccc(Cl)cc4)c4cnccc34)CC2)CC1` [Compound 8, 4-[1-(4-Chlorophenyl)-1H-pyrrolo[2,3-c]pyridin-3-yl]-N-(1-methylpiperidin-4-yl)piperidine-1-carboxamide], for which the half-inhibitory concentration (IC50) was under 100 nM. As for `CC(C)N1CCC(CNC(=O)N2CCC(c3cn(-c4ccc(Cl)cc4)c4cnccc34)CC2)CC1` [Compound 27, 4-[1-(4-Chlorophenyl)-1H-pyrrolo[2,3-c]pyridin-3-yl]-N-{[1-(propan-2-yl)piperidin-4-yl]methyl}piperidine-1-carboxamide; formic acid], the figure is under 100 nM; as for `O=C1NCCN1CCNc1nn(-c2ccc(Cl)cc2)c2cnccc12` [Compound 64, 1-(2-{[1-(4-Chlorophenyl)-1H-pyrazolo[3,4-c]pyridin-3-yl]amino}ethyl)imidazolidin-2-one], under 100 nM; as for `CCN1CCC(CNC(=O)N2CCC(c3cn(-c4ccc(Cl)cc4)c4cnccc34)CC2)CC1` [Compound 12, 4-[1-(4-Chlorophenyl)-1H-pyrrolo[2,3-c]pyridin-3-yl]-N-[(1-ethylpiperidin-4-yl)methyl] piperidine-1-carboxamide], under 100 nM.

`O=C(NCC1CNCCO1)N1CCC(c2cn(-c3ccc(Cl)cc3)c3cnccc23)CC1` (stereo not shown) [Compound 20, 4-[1-(4-Chlorophenyl)-1H-pyrrolo[2,3-c]pyridin-3-yl]-N-(morpholin-2-ylmethyl) pipendine-1-carboxamide]: the IC50 was under 100 nM.

For `CN1CCC(NC(=O)CC2COCCN2c2nn(-c3ccc(Cl)cc3)c3cnccc23)CC1` (stereo not shown) [Compound 57, 2-{4-[1-(4-Chlorophenyl)-1H-pyrazolo[3,4-c]pyridin-3-yl]morpholin-3-yl)-N-(1-methylpiperidin-4-yl)acetamide], the IC50 lay within 100 to 500 nM.

Regarding `COC(=O)CC1COCCN1c1nn(-c2ccc(Cl)cc2)c2cnccc12` (stereo not shown) [Compound 40, Methyl 2-{4-[1-(4-chlorophenyl)-1H-pyrazolo[3,4-c]pyridin-3-yl]morpholin-3-yl}acetate], the IC50 was under 100 nM. Under `Cc1ccc(-n2nc(N3CCOC(CNC(=O)NC4CC4)C3)c3ccncc32)cc1` (stereo not shown) [Compound 31, 3-Cyclopropyl-1-({4-[1-(4-methylphenyl)-1H-pyrazolo[3,4-c]pyridin-3-yl]morpholin-2-yl}methyl)urea] stands under 100 nM; under `O=C(NC(c1nn[nH]n1)C1CC1)N1CCC(c2cn(-c3ccc(Cl)cc3)c3cnccc23)CC1` (stereo not shown) [Compound 62, 4-[1-(4-Chlorophenyl)-1H-pyrrolo[2,3-c]pyridin-3-yl]-N—[cyclopropyl(2H-1,2,3,4-tetrazol-5-yl)methyl]piperidine-1-carboxamide; trifluoroacetic acid], under 100 nM; under `O=C(N1CCC(c2cn(-c3ccc(Cl)cc3)c3cnccc23)CC1)N1CCN(C2CC2)CC1` [Compound 16, 1-({4-[1-(4-Chlorophenyl)-1H-pyrrolo[2,3-c]pyridin-3-yl]piperidin-1-yl}carbonyl)-4-cyclopropyl-piperazine], under 100 nM. Regarding `CC(C)N1CCC(CN(C)C(=O)N2CCC(c3cn(-c4ccc(Cl)cc4)c4cnccc34)CC2)CC1` [Compound 15, 4-[1-(4-Chlorophenyl)-1H-pyrrolo[2,3-c]pyridin-3-yl]-N-methyl-N-{[1-(propan-2-yl)piperidin-4-yl]methyl} piperidine-1-carboxamide], the IC50 was under 100 nM. As for `CC(C)[C@H]1CN(C(=O)N2CCC(c3cn(-c4ccc(Cl)cc4)c4cnccc34)CC2)CCN1` [Compound 19, (3S)-1-({4-[1-(4-Chlorophenyl)-1H-pyrrolo[2,3-c]pyridin-3-yl]piperidin-1-yl}carbonyl)-3-(propan-2-yl) piperazine], the figure is under 100 nM. Take `O=C(NCCN1CCNCC1)N1CCC(c2cn(-c3ccc(Cl)cc3)c3cnccc23)CC1` [Compound 23, 4-[1-(4-Chlorophenyl)-1H-pyrrolo[2,3-c]pyridin-3-yl]-N-[2-(piperazin-1-yl)ethyl] piperidine-1-carboxamide]: the IC50 was under 100 nM. Under `Cc1ccc(-n2nc(N3CCOC(CNC(=O)OC(C)C)C3)c3ccncc32)cc1` (stereo not shown) [Compound 30, Propan-2-yl N-({4-[1-(4-methylphenyl)-1H-pyrazolo[3,4-c]pyridin-3-yl]morpholin-2-yl}methyl)carbamate] stands under 100 nM. With `CN1CCN(C(=O)CC2COCCN2c2nn(-c3ccc(Cl)cc3)c3cnccc23)CC1` (stereo not shown) [Compound 55, 2-{4-[1-(4-Chlorophenyl)-1H-pyrazolo[3,4-c]pyridin-3-yl]morpholin-3-yl}-1-(4-methylpiperazin-1-yl)ethan-1-one], the IC50 was under 100 nM. As for `COCCN1CCC(CNC(=O)N2CCC(c3cn(-c4ccc(Cl)cc4)c4cnccc34)CC2)CC1` [Compound 28, 4-[1-(4-Chlorophenyl)-1H-pyrrolo[2,3-c]pyridin-3-yl]-N-{[1-(2-methoxyethyl)piperidin-4-yl]methyl}piperidine-1-carboxamide; formic acid], the figure is under 100 nM; as for `Clc1ccc(-n2nc(N3CCOCC3CN3CCOCC3)c3ccncc32)cc1` (stereo not shown) [Compound 41, 4-[1-(4-Chlorophenyl)-1H-pyrazolo[3,4-c]pyridin-3-yl]-3-(morpholin-4-ylmethyl)morpholine], 100 to 500 nM; as for `O=C(NCC1CCNCC1)N1CCC(c2cn(-c3ccc(Cl)cc3)c3cnccc23)CC1` [Compound 6, 4-[1-(4-Chlorophenyl)-1H-pyrrolo[2,3-c]pyridin-3-yl]-N-(piperidin-4-ylmethyl)piperidine-1-carboxamide], under 100 nM. For the compound `NCCCOC(=O)N1CCN(CC2CN(c3nn(-c4ccc(Cl)cc4)c4cnccc34)CCO2)CC1` (stereo not shown) [Compound 37, 3-Aminopropyl 4-({4-[1-(4-chlorophenyl)-1H-pyrazolo[3,4-c]pyridin-3-yl]morpholin-2-yl}methyl)piperazine-1-carboxylate trihydrochloride], the IC50 was in the range of 100 to 500 nM.
